The values that follow come from patent US20040248918A1, “N-phenyl-2-pyrimidine-amine derivatives and process for the preparation thereof” (IL YANG PHARM. CO., LTD., priority 2003, published 2004).

One may read the melting point as the temperature of the solid-liquid transition. By IC50 is commonly meant the concentration needed to halve the response being measured. A word on the Cmax: it is the peak of the concentration-time curve. Usually Tmax stands for the time at which the peak concentration occurs. What is called AUC is the area under the concentration-time curve, a measure of exposure. Higher therefore signals high exposure.

Where a name gives a salt, the structure may show the parent alone.

For data set [1], the system named is K562 cancer cell (CML cell line). In words: Growth inhibition of K562 cancer cell (MTT). The class given is cell-based. To be noted: for IC50: Homo sapiens, K562, 48 h, K562, 2 days, MTT, read-out: IC50. The procedure:
In the present experiment, the inhibitory activity of the compound of formula (1) was determined against the growth of K562 cancer cell. First, the cells were allowed to stand in RPMI (Roswell Park Memorial Institute)-1640 medium containing 10% (v/v) fetal bovine serum in an incubator of 37° C. and 5% by volume of CO2. The cancer cells (1000 cells) were transferred to a 96-well plate, and the test compound was diluted. The plate was allowed to stand under the above mentioned conditions for 2 days. […] The supernatant was removed to leave the resulting crystal.

For data set [2], the system named is L1210 cancer cell (leukemia cell line). In words: Growth inhibition of L1210 cancer cell (MTT). The format is cell-based. To be noted: for IC50: Mus musculus. The procedure: (§1) In the present experiment, the inhibitory activity of the compound of formula (1) was determined against the growth of K562 cancer cell. First, the cells were allowed to stand in RPMI (Roswell Park Memorial Institute)-1640 medium containing 10% (v/v) fetal bovine serum in an incubator of 37° C. and 5% by volume of CO2. The cancer cells (1000 cells) were transferred to a 96-well plate, and the test compound was diluted. The plate was allowed to stand under the above mentioned conditions for 2 days. After this treatment, to the cells was added 0.2% MTT (3-[4,5-dimethylthiazol-2-yl]-2,5-diphenyltetrazolium bromide) solution, and the resulting mixture was allowed to stand under the constant temperature-condition for 4 hours. The supernatant was removed to leave the resulting crystal. DMSO was added to dissolve the crystal, and the absorbance of the solution was measured at 540 nm. IC50 value was calculated using a computer system according to the following formula: […]
In the present experiment, the inhibitory activity of the compound of formula (1) was determined against the growth of L1210 cancer cell. The test was performed according to the same procedure as Experiment 1.

Data set [3] concerns U937 cancer cell (monocyte like leukemia cell line). In words: Growth inhibition of U937 cancer cell (MTT). The format is cell-based. To be noted: Homo sapiens, U-937. As for the experimental part: as §1
In the present experiment, the inhibitory activity of the compound of formula (1) was determined against the growth of U937 cancer cell. The test was performed according to the same procedure as Experiment 1.

Data set [4] is described as follows: Comparative pharmacokinetic test in white rats. The format is in vivo, white rats (Sprague-Dawley). The note with it: male, Sprague-Dawley, plasma, po, rat, 100 mg/kg, P.O. The procedure:
On the previous day to the test, white rats (Sprague-Dawley, 250˜280 g, male) were put under anesthesia by pentobarbital sodium (50 mg/kg, I.P.). Then, cannula (polyethylene tube; diameter: 0.58mm) was introduced into the rats via the carotid artery and jugular vein, and drawn out to the back. After the operation, the rats were fasted for 16 hours and used for the test. […] Blood was collected in 0, 0.5, 1, 1.5, 2, 2.5, 3, 3.5, 4, 4.5, 5, 6, 8, 10, 12, and 24 hours from the carotid artery. The samples for HPLC analysis were prepared using the collected blood according to the following procedure and were analyzed under the following conditions.
Blood was collected by an amount of 0.5 ml at each prearranged time and centrifuged at 15000 rpm for 7 minutes to separate […] of plasma. In order to remove proteins, MeOH was added in an amount of […], twice as much as the amount of plasma, and the mixture was shaken for 30 minutes. The mixture was centrifuged again at 15000 rpm for 5 minutes to give protein free supernatant, which was then analyzed by HPLC.
Flow rate: 1.0 ml/min, UV detection at 267 nm
Column: 4.6×150 mm, 5C18-AR-II, COSMOSIL
Eluent: Mixture of ion pair sample (420 ml) and MeOH (580 ml)
Ion pair sample: 7.5 g of 1-octanesulfonic acid was dissolved in 800 ml of water. The resulting mixture was adjusted to pH 2.5 using phosphoric acid and diluted with water to 1000 ml volume.
Here, the pharmacokinetic parameters are Tmax (time to reach the maximum blood concentration), Cmax (maximum blood concentration), AUC (area under the curve of time-blood concentration), and T1/2 (half time in blood), and the AUC was calculated under trapezoid rule (see Tables 6, 7 and FIGS. 1, 2).

`CN1CCCN(Cc2ccc(C(=O)Nc3ccc(F)c(Nc4nccc(-c5cccnc5)n4)c3)cc2)CC1.CS(=O)(=O)O` [Example 34, 4-(4-methylhomopiperazin-1-ylmethyl)-N-[4-fluoro-3-(4-(pyridin-3-yl)pyrimidin-2-yl)aminophenyl]benzamide methanesulfonate]: the melting point lay in the range of 158 to 160 °C. Further, the IC50 in data set [1] is 7.17 µg/mL.

As to `COc1ccc(NC(=O)c2ccc(CN3CCCN(C)CC3)cc2)cc1Nc1nccc(-c2cccnc2)n1.CS(=O)(=O)O` [Example 20, 4-(4-methylhomopiperazin-1-ylmethyl)-N-[4-methoxy-3-(4-(pyridin-3-yl)pyrimidin-2-yl)aminophenyl]benzamide methanesulfonate], the melting point was 140 to 142 °C. Also, the IC50 in data set [2] is 4.32 µg/mL. Also, in data set [1], the IC50 is 34.7 µg/mL. This compound came in with an IC50 in data set [3] of 9.51 µg/mL.

`CS(=O)(=O)O.Cc1ccc(Nc2nccc(-c3cccnc3)n2)cc1NC(=O)c1ccc(CN2CCCN(C)CC2)cc1` [Example 6, 4-(4-methylhomopiperazin-1-ylmethyl)-N-[2-methyl-5-(4-(pyridin-3-yl)pyrimidin-2-yl)aminophenyl]benzamide methanesulfonate] yielded a melting point of 168 to 170 °C. Further, in data set [2], the “Improved activity versus Imatinib mesylate” value is recorded as 10 times and the midpoint of inhibition, the IC50, lay at 3.24 µg/mL. The concentration for half-maximal inhibition (IC50) in data set [1] amounted to 20.5 µg/mL. In data set [3], this compound registered an IC50 of 5.14 µg/mL.

In turn, `CS(=O)(=O)O.Cc1cc(NC(=O)c2ccc(CNN3CCN(C)CC3)cc2)ccc1Nc1nccc(-c2cccnc2)n1` gave a melting point of 172 to 174 °C.

`CN1CCN(NCc2ccc(C(=O)Nc3cc(Nc4nccc(-c5cccnc5)n4)ccc3F)cc2)CC1.CS(=O)(=O)O` [Example 28, 4-(4-methylpiperazin-1-ylaminomethyl)-N-[2-fluoro-5-(4-(pyridin-3-yl)pyrimidin-2-yl)aminophenyl]benzamide methanesulfonate]: the melting point lay within 142 to 144 °C. In addition, the IC50 in data set [1] was 8.63 µg/mL.

Regarding `CS(=O)(=O)O.O=C(Nc1cccc(Nc2nccc(-c3cccnc3)n2)c1)c1ccc(CN2CCCCC2)cc1` [Example 36, 4-(piperidin-1-ylmethyl)-N-[3-(4-(pyridin-3-yl)pyrimidin-2-yl)aminophenyl]benzamide methanesulfonate], the melting point lay within 173 to 175 °C. Also, in data set [2], half-maximal inhibition (IC50) required 5.95 µg/mL. Also, in data set [1], the IC50 amounted to 11.3 µg/mL. For the same compound, half-maximal inhibition in data set [3] (IC50) required 6.91 µg/mL.

On to `CC(=O)O.CN1CCN(NCc2ccc(C(=O)Nc3ccc(Nc4nccc(-c5cccnc5)n4)cc3)cc2)CC1`, for which the melting point is 169 to 171 °C.

For the compound `Cc1ccc(NC(=O)c2ccc(CNN3CCN(C)CC3)cc2)cc1Nc1nccc(-c2cccnc2)n1.Cl` [Example 42, 4-(4-methylpiperazin-1-ylaminomethyl)-N-[4-methyl-3-(4-(pyridin-3-yl)pyrimidin-2-yl)aminophenyl]benzamide hydrochloride], in data set [1], the IC50 was determined as 0.3 µg/mL. For the same compound, the “Improved activity versus Imatinib mesylate” value in data set [1] (K562) was “much higher activity”.

With `CN1CCCN(Cc2ccc(C(=O)Nc3ccc(Nc4nccc(-c5cccnc5)n4)cc3)cc2)CC1.Cl` [Example 41, 4-(4-methylhomopiperazin-1-ylmethyl)-N-[4-(4-(pyridin-3-yl)pyrimidin-2-yl)aminophenyl]benzamide hydrochloride], the IC50 in data set [1] came to 5.61 µg/mL.

For `CN1CCCN(Cc2ccc(C(=O)Nc3cccc(Nc4nccc(-c5cccnc5)n4)c3)cc2)CC1.CS(=O)(=O)O` [Example 12, 4-(4-methylhomopiperazin-1-ylmethyl)-N-[3-(4-(pyridin-3-yl)pyrimidin-2-yl)aminophenyl]benzamide methanesulfonate], the melting point lay within 206 to 208 °C. Also, in data set [2], the “Improved activity versus Imatinib mesylate” value is recorded as 32 times and the IC50 was 0.99 µg/mL. Further, the IC50 in data set [1] is 10.2 µg/mL. This compound also yielded an IC50 in data set [3] of 3.41 µg/mL.

The compound `CN1CCN(NCc2ccc(C(=O)Nc3cccc(Nc4nccc(-c5cccnc5)n4)c3)cc2)CC1.CS(=O)(=O)O` [Example 14, 4-(4-methylpiperazin-1-ylaminomethyl)-N-[3-(4-(pyridin-3-yl)pyrimidin-2-yl)aminophenyl]benzamide methanesulfonate] showed a melting point of 148 to 150 °C. The IC50 in data set [1] turned out to be 8.95 µg/mL.

Compound `CN1CCCN(Cc2ccc(C(=O)Nc3cc(Nc4nccc(-c5cccnc5)n4)ccc3F)cc2)CC1.CS(=O)(=O)O` [Example 24, 4-(4-methylhomopiperazin-1-ylmethyl)-N-[2-fluoro-5-(4-(pyridin-3-yl)pyrimidin-2-yl)aminophenyl]benzamide methanesulfonate] yielded a melting point of 125 to 127 °C. In data set [1], the IC50 was determined as 19.1 µg/mL.

`CN1CCN(NCc2ccc(C(=O)Nc3ccc(Nc4nccc(-c5cccnc5)n4)cc3)cc2)CC1.CS(=O)(=O)O` [Example 30, 4-(4-methylpiperazin-1-ylaminomethyl)-N-[4-(4-(pyridin-3-yl)pyrimidin-2-yl)aminophenyl]benzamide methanesulfonate] returned a melting point of 151 to 153 °C. Besides, the IC50 in data set [1] came to 22.8 µg/mL.

`Cc1ccc(NC(=O)c2ccc(CN3CCN(C)CC3)cc2)cc1Nc1nccc(-c2cccnc2)n1` [Imatinib mesylate, reference compound]: in data set [4], the concentration peaked (Cmax) at 2720 ng/mL and the Tmax came to 2.3 h. Also, the AUC in data set [4] (trapezoid rule) stood at 26500 ng·h/mL.

Regarding `CS(=O)(=O)O.Cc1ccc(Nc2nccc(-c3cccnc3)n2)cc1NC(=O)c1ccc(CNN2CCN(C)CC2)cc1` [Example 8, 4-(4-methylpiperazin-1-ylaminomethyl)-N-[2-methyl-5-(4-(pyridin-3-yl)pyrimidin-2-yl)aminophenyl]benzamide methanesulfonate], the melting point was in the range of 150 to 152 °C. This compound also gave an IC50 in data set [2] of 7.38 µg/mL. The IC50 in data set [1] is 27.6 µg/mL. For the same compound, in data set [3], the IC50 was 9.44 µg/mL.

Turning to `CS(=O)(=O)O.Cc1cc(NC(=O)c2ccc(CN3CCCN(C)CC3)cc2)ccc1Nc1nccc(-c2cccnc2)n1` [Example 16, 4-(4-methylhomopiperazin-1-ylmethyl)-N-[3-methyl-4-(4-(pyridin-3-yl)pyrimidin-2-yl)aminophenyl]benzamide methanesulfonate], the melting point lay in the range of 166 to 168 °C. Moreover, in data set [1], the IC50 was above 50 µg/mL.

Compound `CN1CCN(Cc2ccc(C(=O)Nc3ccc(F)c(Nc4nccc(-c5cccnc5)n4)c3)cc2)CC1.CS(=O)(=O)O` [Example 32, 4-(4-methylpiperazin-1-ylmethyl)-N-[4-fluoro-3-(4-(pyridin-3-yl)pyrimidin-2-yl)aminophenyl]benzamide methanesulfonate] had a melting point of 172 to 174 °C. Also, the IC50 in data set [1] was found to be 8.06 µg/mL.

The compound `CN1CCN(NCc2ccc(C(=O)Nc3ccc(Nc4nccc(-c5cccnc5)n4)cc3)cc2)CC1.Cl` [Example 43, 4-(4-methylpiperazin-1-ylaminomethyl)-N-[4-(4-(pyridin-3-yl)pyrimidin-2-yl)aminophenyl]benzamide hydrochloride] had a melting point of 183 to 185 °C. In addition, the IC50 in data set [1] was above 50 µg/mL.

`COc1ccc(NC(=O)c2ccc(CNN3CCN(C)CC3)cc2)cc1Nc1nccc(-c2cccnc2)n1.CS(=O)(=O)O` [Example 22, 4-(4-methylpiperazin-1-ylaminomethyl)-N-[4-methoxy-3-(4-(pyridin-3-yl)pyrimidin-2-yl)aminophenyl]benzamide methanesulfonate] registered a melting point of 142 to 144 °C. The IC50 in data set [2] is 4.46 µg/mL. In addition, the IC50 in data set [1] was determined as 10 µg/mL. In data set [3], this compound gave an IC50 of 8.61 µg/mL.
